# Active and inactive are the calls of the source. No cut-off for these calls is given here.
# Tests used:
# Acetylcholinesterase [1] = target: Acetylcholinesterase (Electrophorus electricus, UniProt O42275); assay: Inhibition of electric eel AChE using ATC iodide as substrate preincubated for 4.5 mins followed by substrate addition measured after 2.5 mins by Ellman's method
# Cannabinoid receptor 2 [2] = target: T1, Cannabinoid receptor 2 (Homo sapiens, UniProt P34972); assay: biochemical
# Description: Displacement of [3H]-CP55950 from human CB2 receptor expressed in HEK cell membranes after 3 hrs by scintillation counting method
# Acetylcholinesterase [3] = target: T2, Acetylcholinesterase (Homo sapiens, UniProt P22303)
# T2 sequence (P22303 whole entry): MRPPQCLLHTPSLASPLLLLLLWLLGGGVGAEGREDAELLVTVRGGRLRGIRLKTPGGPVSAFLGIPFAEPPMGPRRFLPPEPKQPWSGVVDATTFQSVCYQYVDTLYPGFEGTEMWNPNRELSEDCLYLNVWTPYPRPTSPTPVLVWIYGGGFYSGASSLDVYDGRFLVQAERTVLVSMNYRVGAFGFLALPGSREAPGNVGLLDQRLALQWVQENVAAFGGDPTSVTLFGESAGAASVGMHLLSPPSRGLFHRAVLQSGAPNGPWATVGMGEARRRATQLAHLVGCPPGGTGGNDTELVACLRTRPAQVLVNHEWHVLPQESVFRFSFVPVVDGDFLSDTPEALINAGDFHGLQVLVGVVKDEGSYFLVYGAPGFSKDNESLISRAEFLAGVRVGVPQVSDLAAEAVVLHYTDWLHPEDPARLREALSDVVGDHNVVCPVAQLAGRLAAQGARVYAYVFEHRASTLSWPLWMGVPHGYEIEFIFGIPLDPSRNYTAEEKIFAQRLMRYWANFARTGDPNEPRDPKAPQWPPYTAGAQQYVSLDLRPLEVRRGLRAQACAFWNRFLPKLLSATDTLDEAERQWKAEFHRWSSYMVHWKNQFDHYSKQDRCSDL
# U-266 = assay: Cytotoxicity against human U266 cells assessed as decrease in cell viability after 72 hrs by MTT assay; assay type: cell-based; details: U-266, 72 h
# Cholinesterase [4] = target: T3, Cholinesterase (Homo sapiens, UniProt P06276)
# T3 sequence (P06276 whole entry): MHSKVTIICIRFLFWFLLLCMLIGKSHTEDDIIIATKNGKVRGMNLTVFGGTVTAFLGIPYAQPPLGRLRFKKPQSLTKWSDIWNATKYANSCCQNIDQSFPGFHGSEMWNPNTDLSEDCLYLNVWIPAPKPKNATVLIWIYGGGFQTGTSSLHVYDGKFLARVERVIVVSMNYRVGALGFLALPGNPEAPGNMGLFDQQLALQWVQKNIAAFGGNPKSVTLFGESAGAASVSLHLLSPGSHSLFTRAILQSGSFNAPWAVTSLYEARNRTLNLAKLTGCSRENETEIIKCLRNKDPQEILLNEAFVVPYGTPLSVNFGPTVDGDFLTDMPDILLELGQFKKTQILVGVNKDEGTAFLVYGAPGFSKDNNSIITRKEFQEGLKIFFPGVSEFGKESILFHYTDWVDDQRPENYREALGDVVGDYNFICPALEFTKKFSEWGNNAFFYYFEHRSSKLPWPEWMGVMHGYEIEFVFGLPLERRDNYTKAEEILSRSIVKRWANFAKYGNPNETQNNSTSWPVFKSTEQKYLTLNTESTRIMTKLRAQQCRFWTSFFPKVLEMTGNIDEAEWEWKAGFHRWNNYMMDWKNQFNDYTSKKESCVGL
# Cannabinoid receptor 1 [5] = target: T4, Cannabinoid receptor 1 (Homo sapiens, UniProt P21554); assay: Displacement of [3H]-[…] from human CB1 receptor expressed in CHO cell membranes at 10 uM after 3 hrs by scintillation counting method relative to control
# T4 sequence (P21554 whole entry): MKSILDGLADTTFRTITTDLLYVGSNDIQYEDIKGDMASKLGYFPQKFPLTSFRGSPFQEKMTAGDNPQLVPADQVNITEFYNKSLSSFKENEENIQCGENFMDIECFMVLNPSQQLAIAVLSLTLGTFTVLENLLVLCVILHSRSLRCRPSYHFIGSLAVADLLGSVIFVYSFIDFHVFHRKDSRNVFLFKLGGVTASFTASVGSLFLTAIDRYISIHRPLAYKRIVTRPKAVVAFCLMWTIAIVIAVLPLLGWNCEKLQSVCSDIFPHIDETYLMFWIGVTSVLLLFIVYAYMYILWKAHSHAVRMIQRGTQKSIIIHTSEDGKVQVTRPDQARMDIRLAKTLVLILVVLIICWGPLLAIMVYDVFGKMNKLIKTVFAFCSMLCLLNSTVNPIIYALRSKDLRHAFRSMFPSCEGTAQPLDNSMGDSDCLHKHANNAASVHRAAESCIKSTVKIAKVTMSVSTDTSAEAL
# Acetylcholinesterase [6] = target: T2, Acetylcholinesterase; assay: Inhibition of human erythrocyte AChE at 10 uM using ATC iodide as substrate preincubated for 4.5 mins followed by substrate addition measured after 2.5 mins by Ellman's method relative to control
# [7] = target: Acetylcholinesterase (Electrophorus electricus) (UniProt O42275); assay: Inhibition of electric eel AChE at 10 uM using ATC iodide as substrate preincubated for 4.5 mins followed by substrate addition measured after 2.5 mins by Ellman's method relative to control
# Sequence of Acetylcholinesterase (Electrophorus electricus) (O42275 24-633 limits assumed): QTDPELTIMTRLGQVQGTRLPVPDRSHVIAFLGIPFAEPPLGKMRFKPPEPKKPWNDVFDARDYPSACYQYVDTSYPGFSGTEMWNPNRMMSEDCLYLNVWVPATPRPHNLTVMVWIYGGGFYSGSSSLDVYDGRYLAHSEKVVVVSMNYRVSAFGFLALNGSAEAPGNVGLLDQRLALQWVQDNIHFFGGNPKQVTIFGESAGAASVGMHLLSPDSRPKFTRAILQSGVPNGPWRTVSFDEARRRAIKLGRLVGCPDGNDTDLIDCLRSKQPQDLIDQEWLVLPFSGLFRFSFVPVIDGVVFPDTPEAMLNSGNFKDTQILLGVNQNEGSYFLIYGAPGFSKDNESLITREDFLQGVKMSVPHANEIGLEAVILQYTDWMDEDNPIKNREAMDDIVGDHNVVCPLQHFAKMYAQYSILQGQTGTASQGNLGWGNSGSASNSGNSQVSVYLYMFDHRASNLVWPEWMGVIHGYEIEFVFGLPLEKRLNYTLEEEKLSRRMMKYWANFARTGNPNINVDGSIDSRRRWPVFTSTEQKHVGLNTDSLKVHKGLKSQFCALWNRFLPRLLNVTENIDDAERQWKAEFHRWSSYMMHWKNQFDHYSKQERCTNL
# Cholinesterase [8] = target: T3, Cholinesterase; assay: Inhibition of human BChE at 10 uM using BTC iodide as substrate preincubated for 4.5 mins followed by substrate addition measured after 2.5 mins by Ellman's method relative to control
# [9] = target: Acetylcholinesterase (Electrophorus electricus) (UniProt O42275); assay: Inhibition of electric eel AChE at 25 uM using ATC iodide as substrate preincubated for 4.5 mins followed by substrate addition measured after 2.5 mins by Ellman's method relative to control
# Cholinesterase [10] = target: T3, Cholinesterase; assay: Inhibition of human BChE at 25 uM using BTC iodide as substrate preincubated for 4.5 mins followed by substrate addition measured after 2.5 mins by Ellman's method relative to control
# Mus musculus [11] = assay: Pro-cognitive activity in Swiss mouse assessed as prevention of amyloid beta (25 to 35)-induced step through latency deficit at 3 mg/kg, ip administered for 7 days measured on day 10 by passive avoidance test; assay type: functional, organism-based
# Cannabinoid receptor 2 [12] = target: T1, Cannabinoid receptor 2; assay: Agonist activity at CB2 receptor in human U266 cells assessed as decrease in cAMP accumulation at 50 uM after 2 hrs by ELISA; assay type: functional, cell-based
# Cannabinoid receptor 2 [13] = target: T1, Cannabinoid receptor 2; assay: Agonist activity at CB2 receptor in human U266 cells assessed as decrease in AM630-induced STAT3 mRNA expression at 50 uM after 2 hrs by qRT-PCR method; assay type: cell-based
# Cholinesterase [14] = target: Cholinesterase (Equus caballus, UniProt P81908); assay: Inhibition of equine BChE using BTC iodide as substrate preincubated for 4.5 mins followed by substrate addition measured after 2.5 mins by Ellman's method
# Sequence of Cholinesterase (Equus caballus, UniProt P81908) (P81908 whole entry): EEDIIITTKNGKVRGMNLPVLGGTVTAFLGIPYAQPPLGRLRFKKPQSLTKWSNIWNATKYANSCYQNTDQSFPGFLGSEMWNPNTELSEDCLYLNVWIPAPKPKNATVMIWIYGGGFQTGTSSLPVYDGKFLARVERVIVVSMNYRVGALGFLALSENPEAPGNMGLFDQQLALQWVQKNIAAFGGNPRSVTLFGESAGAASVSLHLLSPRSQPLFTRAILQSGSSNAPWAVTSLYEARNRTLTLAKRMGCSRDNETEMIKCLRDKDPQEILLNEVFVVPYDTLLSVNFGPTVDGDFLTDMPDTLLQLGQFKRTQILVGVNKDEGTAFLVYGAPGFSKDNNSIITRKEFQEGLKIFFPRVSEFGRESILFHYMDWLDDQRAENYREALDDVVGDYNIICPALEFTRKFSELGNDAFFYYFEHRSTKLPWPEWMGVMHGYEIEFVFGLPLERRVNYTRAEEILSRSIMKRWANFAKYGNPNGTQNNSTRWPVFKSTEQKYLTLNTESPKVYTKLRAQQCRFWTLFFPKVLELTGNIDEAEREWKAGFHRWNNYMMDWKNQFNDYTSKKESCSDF
# Cannabinoid receptor 2 [15] = target: T1, Cannabinoid receptor 2; assay: Agonist activity at CB2 receptor in human U266 cells assessed as decrease in MIF mRNA expression at 50 uM after 2 hrs by qRT-PCR method; assay type: cell-based
# Cannabinoid receptor 2 [16] = target: T1, Cannabinoid receptor 2; assay: Agonist activity at CB2 receptor in human U266 cells assessed as decrease in STAT3 mRNA expression at 50 uM after 2 hrs by qRT-PCR method; assay type: cell-based
# Cannabinoid receptor 2 [17] = target: T1, Cannabinoid receptor 2; assay: Agonist activity at CB2 receptor in human U266 cells assessed as decrease in AM630-induced MIF mRNA expression at 50 uM after 2 hrs by qRT-PCR method; assay type: cell-based
# Cannabinoid receptor 2 [18] = target: T1, Cannabinoid receptor 2; assay: Agonist activity at CB2 receptor in human U266 cells assessed as decrease in AM630-induced cAMP accumulation at 50 uM after 2 hrs by ELISA; assay type: functional, cell-based
# Mus musculus [19] = assay: Toxicity in Swiss mouse assessed as body weight gain per day at 0.3 to 3 mg/kg, ip administered for 7 days measured during compound dosing; assay type: organism-based; details: in vivo, 168 h
# Mus musculus [20] = assay: Pro-cognitive activity in Swiss mouse assessed as prevention of amyloid beta (25 to 35)-induced increase in escape latency at 1 to 3 mg/kg, ip administered for 7 days measured on day 10 by passive avoidance test; assay type: functional, organism-based
# Mus musculus [21] = assay: Pro-cognitive activity in amyloid beta (25 to 35)-treated Swiss mouse assessed as increase in locomotion by measuring number of arms entered during session at 3 mg/kg, ip administered for 7 days measured on day 8 by Y-maze test; assay type: functional, organism-based
# [22] = target: Acetylcholinesterase (Electrophorus electricus) (UniProt O42275); assay: Inhibition of electric eel AChE at 100 uM using ATC iodide as substrate preincubated for 4.5 mins followed by substrate addition measured after 2.5 mins by Ellman's method relative to control
# Acetylcholinesterase [23] = target: T2, Acetylcholinesterase; assay: Inhibition of human erythrocyte AChE at 100 uM using ATC iodide as substrate preincubated for 4.5 mins followed by substrate addition measured after 2.5 mins by Ellman's method relative to control
# Cannabinoid receptor 1 [24] = target: T4, Cannabinoid receptor 1; assay: biochemical; assay type: cell-based
# Description: Displacement of [3H]-CP55950 from human CB1 receptor expressed in CHO cell membranes after 3 hrs by scintillation counting method
# Cholinesterase [25] = target: T3, Cholinesterase; assay: Inhibition of human BChE at 50 uM using BTC iodide as substrate preincubated for 4.5 mins followed by substrate addition measured after 2.5 mins by Ellman's method relative to control
# [26] = target: Acetylcholinesterase (Electrophorus electricus) (UniProt O42275); assay: Inhibition of electric eel AChE at 50 uM using ATC iodide as substrate preincubated for 4.5 mins followed by substrate addition measured after 2.5 mins by Ellman's method relative to control
# Cholinesterase [27] = target: T3, Cholinesterase; assay: Inhibition of human BChE at 100 uM using BTC iodide as substrate preincubated for 4.5 mins followed by substrate addition measured after 2.5 mins by Ellman's method relative to control
# Cannabinoid receptor 2 [28] = target: T1, Cannabinoid receptor 2; details: 10 uM
# Description: Displacement of [3H]-CP55950 from human CB2 receptor expressed in HEK cell membranes at 10 uM after 3 hrs by scintillation counting method relative to control
# T1 sequence (P34972 whole entry): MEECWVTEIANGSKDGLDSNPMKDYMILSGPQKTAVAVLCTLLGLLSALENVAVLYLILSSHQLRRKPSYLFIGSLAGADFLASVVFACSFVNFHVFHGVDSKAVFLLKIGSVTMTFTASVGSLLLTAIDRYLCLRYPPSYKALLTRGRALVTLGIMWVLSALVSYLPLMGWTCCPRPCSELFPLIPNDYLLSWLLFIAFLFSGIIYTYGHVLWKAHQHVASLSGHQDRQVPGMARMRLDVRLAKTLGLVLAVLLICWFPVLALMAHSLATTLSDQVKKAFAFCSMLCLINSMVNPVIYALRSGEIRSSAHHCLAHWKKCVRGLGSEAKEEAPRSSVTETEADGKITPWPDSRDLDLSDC
# Sequence of Acetylcholinesterase (Electrophorus electricus, UniProt O42275) (O42275 whole entry): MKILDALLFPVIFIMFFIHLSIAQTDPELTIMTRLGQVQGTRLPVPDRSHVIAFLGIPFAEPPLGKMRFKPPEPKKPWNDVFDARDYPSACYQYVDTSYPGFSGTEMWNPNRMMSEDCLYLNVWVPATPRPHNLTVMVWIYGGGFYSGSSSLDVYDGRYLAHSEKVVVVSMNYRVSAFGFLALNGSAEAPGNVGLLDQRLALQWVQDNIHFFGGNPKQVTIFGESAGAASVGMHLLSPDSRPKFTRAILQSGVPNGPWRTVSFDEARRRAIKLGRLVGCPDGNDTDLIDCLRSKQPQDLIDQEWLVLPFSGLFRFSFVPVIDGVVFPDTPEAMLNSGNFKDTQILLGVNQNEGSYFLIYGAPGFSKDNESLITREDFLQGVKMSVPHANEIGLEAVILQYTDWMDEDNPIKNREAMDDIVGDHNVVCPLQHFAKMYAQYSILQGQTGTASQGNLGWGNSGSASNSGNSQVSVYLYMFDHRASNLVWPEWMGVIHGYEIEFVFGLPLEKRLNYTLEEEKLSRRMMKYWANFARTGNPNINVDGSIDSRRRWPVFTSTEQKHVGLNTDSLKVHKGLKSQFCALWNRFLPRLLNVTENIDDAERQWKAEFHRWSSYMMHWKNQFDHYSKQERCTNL
Structure (SMILES),IC50 (Cannabinoid receptor 2 [2]) [µM],Ki (Cannabinoid receptor 2 [2]) [µM],IC50 (U-266) [µM],IC50 (Cholinesterase [4]) [µM],inhibition (Cannabinoid receptor 1 [5]) [%],inhibition (Acetylcholinesterase [6]) [%],inhibition [7] [%],inhibition (Cholinesterase [8]) [%],inhibition [22] [%],further results
CCOc1ccc(Cc2nc3cc(C(=O)N(CC)CC)ccc3n2CCCCN2CCCCC2)cc1,5.01,4.8,> 40,2.7,2,–,–,–,–,IC50 (Acetylcholinesterase [1]): 20.5 µM; IC50 (Acetylcholinesterase [3]): 60.1 µM
CCOc1ccc(Cc2nc3cc(C(=O)Nc4ccccc4)ccc3n2CCC(C)C)cc1,15.8,14.4,> 40,1.2,18,5,2,–,–,–
CCOc1ccc(Cc2nc3cc(C(=O)N(CC)CC)ccc3n2CCCCCCN2CCCCC2)cc1,1.26,1,–,8.2,4,–,–,–,–,IC50 (Acetylcholinesterase [1]): 11.9 µM; IC50 (Acetylcholinesterase [3]): 20 µM
CCOc1ccc(Cc2nc3cc(NC(=O)c4ccccc4)ccc3n2CCC(C)C)cc1,3.98,4.3,–,–,36,–,2,25,–,–
CCN(CC)C(=O)c1ccc2c(c1)nc(Nc1ccc(Oc3ccccc3)cc1)n2CCN1CCCCC1,7.94,8.9,–,–,37,–,–,–,–,inhibition [9]: 3%; inhibition (Cholinesterase [10]): 4%
CCOc1ccc(Nc2nc3cc(C(=O)N(CC)CC)ccc3n2CCC(C)C)cc1,2,1.9,> 40,–,13,13,–,3,4,Activity (Mus musculus [11]): Active; Activity (Cannabinoid receptor 2 [12]): Active; Activity (Cannabinoid receptor 2 [13]): Active; IC50 (Cholinesterase [14]): 0.7 µM; Activity (Cannabinoid receptor 2 [15]): Active; Activity (Cannabinoid receptor 2 [16]): Active; Activity (Cannabinoid receptor 2 [17]): Active; Activity (Cannabinoid receptor 2 [18]): Active; Activity (Mus musculus [19]): 0.3 g; Activity (Mus musculus [20]): Active; Activity (Mus musculus [21]): Active
CCOc1ccc(Cc2nc3cc(C(=O)N(CC)CC)ccc3n2CCC(C)C)cc1,–,–,–,–,24,–,–,2,28,Activity (Cannabinoid receptor 2 [12]): Active; Activity (Cannabinoid receptor 2 [13]): Active; IC50 (Cholinesterase [14]): 9.7 µM; Activity (Cannabinoid receptor 2 [15]): Active; inhibition (Acetylcholinesterase [23]): 6%; Activity (Cannabinoid receptor 2 [16]): Active; Activity (Cannabinoid receptor 2 [17]): Active; Activity (Cannabinoid receptor 2 [18]): Active; Activity (Mus musculus [19]): 0.3 g; Activity (Mus musculus [20]): Active; Activity (Mus musculus [21]): Active
CCOc1ccc(Cc2nc3cc(C(=O)NC45CC6CC(CC(C6)C4)C5)ccc3n2CCC(C)C)cc1,5.01,4.7,> 40,–,31,–,5,1,–,–
CCOc1ccc(Cc2nc3cc(C(=O)N4CCCCC4)ccc3n2CCC(C)C)cc1,0.398,0.384,–,5.7,–,2,8,–,–,IC50 (Cannabinoid receptor 1 [24]): 15.8 µM; Ki (Cannabinoid receptor 1 [24]): 17 µM
CCN(CC)C(=O)c1ccc2c(c1)nc(Nc1ccc(Oc3ccccc3)cc1)n2CCC(C)C,0.501,0.426,> 40,–,45,3,–,0,2,Activity (Cannabinoid receptor 2 [12]): Active; Activity (Cannabinoid receptor 2 [13]): Active; IC50 (Cholinesterase [14]): 3.7 µM; Activity (Cannabinoid receptor 2 [15]): Active; Activity (Cannabinoid receptor 2 [16]): Active; Activity (Cannabinoid receptor 2 [17]): Active; Activity (Cannabinoid receptor 2 [18]): Active
CCOc1ccc(CNc2nc3cc(C(=O)N(CC)CC)ccc3n2CCC(C)C)cc1,0.398,0.353,–,–,21,–,–,–,–,inhibition (Cholinesterase [25]): 4%; inhibition [26]: 7%
CCOc1ccc(Nc2nc3cc(C(=O)N(CC)CC)ccc3n2CCN2CCCCC2)cc1,12.6,10.4,–,53.4,17,3,–,–,18,–
CCOc1ccc(Cc2nc3cc(N)ccc3n2CCC(C)C)cc1,20,21,–,–,27,–,–,–,15,inhibition (Cholinesterase [27]): 39%
CCCCCCNC(=O)c1ccc2c(c1)nc(Cc1ccc(OCC)cc1)n2CCC(C)C,2,1.9,> 40,5.2,39,6,8,–,–,–
Cc1c(C(=O)NN2CCCCC2)nn(-c2ccc(Cl)cc2Cl)c1-c1ccc(Cl)cc1,–,–,–,–,–,–,–,–,–,inhibition (Cannabinoid receptor 2 [28]): 4%

# Reference: ChEMBL document CHEMBL4020829, “Structure-Activity Relationships and Computational Investigations into the Development of Potent and Balanced Dual-Acting Butyrylcholinesterase Inhibitors and Human Cannabinoid Receptor 2 Ligands with Pro-Cognitive in Vivo Profiles” (J Med Chem, 2018)
